Our source for the IC50 values is ChEMBL document CHEMBL1201862, “PubChem BioAssay data set” (2004).

Molecules are shown by their SMILES. Active and inactive are the calls of the source. Cut-off read from the data, not from the text of the source: actives have a measured IC50 and inactives only a lower limit.

For the assay, the target named is Envelope glycoprotein gp160 (Human immunodeficiency virus 1, UniProt Q6QLK5). The experiment in a line: cell-free HIV fusion peptide-binding blockers – biochemical, uHTS, fluorescence dequenching, […] (AID 1986).
Chain of Envelope glycoprotein gp160 (Q6QLK5 whole entry, the tested form may be a part): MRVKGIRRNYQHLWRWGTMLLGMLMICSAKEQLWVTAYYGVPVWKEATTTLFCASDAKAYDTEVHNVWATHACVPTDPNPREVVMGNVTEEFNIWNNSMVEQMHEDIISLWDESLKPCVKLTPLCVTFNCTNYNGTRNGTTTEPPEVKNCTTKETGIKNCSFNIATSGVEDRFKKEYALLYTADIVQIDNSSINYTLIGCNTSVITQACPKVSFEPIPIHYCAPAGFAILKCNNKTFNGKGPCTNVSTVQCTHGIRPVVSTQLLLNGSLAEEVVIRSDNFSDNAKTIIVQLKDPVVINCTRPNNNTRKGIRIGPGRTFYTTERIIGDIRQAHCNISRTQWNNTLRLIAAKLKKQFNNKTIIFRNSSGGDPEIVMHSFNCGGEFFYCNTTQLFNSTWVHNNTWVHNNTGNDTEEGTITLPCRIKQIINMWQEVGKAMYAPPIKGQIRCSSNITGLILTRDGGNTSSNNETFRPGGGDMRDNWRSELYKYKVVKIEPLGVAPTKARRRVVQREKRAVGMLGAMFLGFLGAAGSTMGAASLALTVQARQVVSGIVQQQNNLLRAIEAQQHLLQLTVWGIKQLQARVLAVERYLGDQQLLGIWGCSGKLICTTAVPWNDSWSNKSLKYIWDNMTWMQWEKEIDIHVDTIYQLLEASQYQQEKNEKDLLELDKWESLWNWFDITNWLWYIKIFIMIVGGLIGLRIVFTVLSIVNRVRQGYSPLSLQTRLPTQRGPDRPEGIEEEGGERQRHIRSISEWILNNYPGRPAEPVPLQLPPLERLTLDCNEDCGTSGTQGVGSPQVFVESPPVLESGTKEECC
Regarding `O=C(O)CCN1C(=O)/C(=C\c2cccc(OCC(=O)Nc3ccc(Cl)cc3)c2)SC1=S`, the 50% inhibitory concentration (IC50) (in general, the point on the concentration scale where inhibition reaches its midpoint) is 13.2 µM (active). The result for `O=C(COc1ccc2ccccc2c1)Nc1cccc(C(=O)Nc2ccccc2C(=O)O)c1` reads 14.3 µM (active). The result for `CCOC(=O)c1sc(N2C(=O)C(O)=C(C(=O)c3ccco3)C2c2ccc([N+](=O)[O-])cc2)nc1C` (stereo not given) reads 17.6 µM (active); that for `O=C(O)c1ccc(Nc2nc(-c3cc4ccccc4oc3=O)cs2)cc1O`, 11.5 µM (active).

For `COc1ccccc1OCCOc1ccc(/C=C2\C(=N)N3N=C(S(C)(=O)=O)SC3=NC2=O)cc1`, the IC50 was 33.8 µM (active).
